From US20110256236A1 (priority 2010, published 2011)
Read-outs that look alike come from different tables or passages of the source.

Key:
MCF-7 = MCF-7 cell line; Du et al. 2005; read-out: IC50 (inhibitory concentration of 50%), tumor growth; cited from earlier work
HL-60 = HL-60 cell line; Du et al. 2005; read-out: IC50 (inhibitory concentration of 50%), tumor growth; cited from earlier work
KG-1a cells = details: 48 hours
Description: The KG-1a cells, which are an early phenotype of human acute myeloid leukemia (American Type Culture Collection, Manassas, Va.), were grown in complete growth medium [Iscove's Modified Dulbeco's Medium (American Type Culture Collection, Manassas, Va.)] supplemented with 20% fetal bovine serum (Sigma-Aldrich, UK) and 1% Penicillin-Streptomycin (GIBCO Invitrogen Corporation, Carlsbad, Calif.) at 37° C. in a humidified 5% CO2 incubator.
The KG-1a cells were cultured for 48 hours in 12-well tissue culture plates, each containing complete growth medium at a concentration of 2×10^6 cells 1 ml, and each well contained a total volume of two milliliters. Thalidomide (TOCRIS Bioscience, Ellisville, Mo.) was added at a concentration of 5 mg/L whether used alone or in combination with other chemotherapeutic agents. Interleukin-2 (Proleukin®, Aldesleuken for injection) (CHIRON Therapeutics, Emeryville, Calif.) was added at a concentration of 200 IU/ml whether used alone or in combination with thalidomide or arsenic trioxide. Arsenic trioxide (Sigma-Aldrich, Inc., St. Louis, Mo.) was added at concentrations of 2 μM and 4 μM with and without 100 μM of ascorbic acid in the first flow cytometry study, and at 4 μM in the rest of the studies either alone or combined with thalidomide and interleukin-2. A control culture containing neither thalidomide nor interleukin-2 nor arsenic trioxide was set up in conditions otherwise identical. All the control and treated cultures were set in duplicate and incubated for 48 hours at 37° C. in a humidified 5% CO2 incubator.
The detection of apoptosis and necrosis by Annex in V-FITC assay using flow cytometric analysis was carried out as described in the Annexin V-FITC Apoptosis Detection Kit (BioVision, Inc., Mountain View, Calif.) manual. Staurosporine (Sigma-Aldrich, Inc., St. Louis, Mo.) was used as a positive control at a concentration of 10 μM and was incubated only for 24 hours with the cells. Briefly, after the KG-1a cells were incubated for 48 hours, they were harvested by centrifugation at 1,300 RPM for five minutes. Cells were resuspended in 500 μl of 1× binding buffer. Then 5 μl of Annexin V-FITC and 5 μl of propidium iodide (PI) were added to all tubes (except the negative control which contained no staining and no treatment; for the Annexin V-FITC controls only the Annexin V-FITC was added; and for the Propidium Iodide control only PI was added). All tubes were incubated at room temperature for five minutes in the dark.
Results were subjected to one way ANOVA. Statistical significant differences between means was set at p<0.05.

PML/RAR-α fusion protein = biological target: T1, PML/RAR-α fusion protein (Homo sapiens, UniProt P10276+P29590); parameters: unit not given here; details: NB4 cells; cited from earlier work
T1 construct: host or cells: NB4 cells (endogenous t(15;17) fusion)
T1 sequence (P29590+P10276 with tags, fused parts or gaps): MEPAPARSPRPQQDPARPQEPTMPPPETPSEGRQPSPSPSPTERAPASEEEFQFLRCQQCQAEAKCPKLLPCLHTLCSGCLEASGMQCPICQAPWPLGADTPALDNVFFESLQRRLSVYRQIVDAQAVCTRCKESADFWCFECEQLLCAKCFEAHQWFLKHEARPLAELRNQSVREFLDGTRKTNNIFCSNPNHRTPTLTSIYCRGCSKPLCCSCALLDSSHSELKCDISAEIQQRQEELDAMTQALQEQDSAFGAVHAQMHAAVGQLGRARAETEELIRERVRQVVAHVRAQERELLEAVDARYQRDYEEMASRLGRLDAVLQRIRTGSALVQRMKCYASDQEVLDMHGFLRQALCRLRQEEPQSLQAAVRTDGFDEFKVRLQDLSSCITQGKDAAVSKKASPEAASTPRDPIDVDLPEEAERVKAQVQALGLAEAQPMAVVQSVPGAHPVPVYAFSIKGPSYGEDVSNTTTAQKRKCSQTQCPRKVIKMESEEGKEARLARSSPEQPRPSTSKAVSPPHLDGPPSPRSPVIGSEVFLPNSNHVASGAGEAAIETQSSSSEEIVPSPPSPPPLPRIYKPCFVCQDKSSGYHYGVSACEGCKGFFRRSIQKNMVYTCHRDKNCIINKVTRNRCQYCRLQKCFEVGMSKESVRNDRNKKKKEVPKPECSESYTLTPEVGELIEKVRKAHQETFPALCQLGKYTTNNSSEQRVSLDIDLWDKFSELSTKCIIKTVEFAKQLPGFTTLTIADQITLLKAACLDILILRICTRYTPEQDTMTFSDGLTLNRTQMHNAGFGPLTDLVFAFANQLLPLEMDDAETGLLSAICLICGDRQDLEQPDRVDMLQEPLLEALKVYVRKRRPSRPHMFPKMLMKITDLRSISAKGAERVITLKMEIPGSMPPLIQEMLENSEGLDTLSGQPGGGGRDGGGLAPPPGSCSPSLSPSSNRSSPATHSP

APL cell line NB4 = tested on: APL cell line NB4; parameters: unit not given here; details: APL studies, cited from earlier work
[1] = thalidomide 5 mg/L, As2O3 4 μM, IL-2 200 IU/ml, alone or combined
[2] = As2O3 2 μM, with or without ascorbic acid 100 μM
[3] = As2O3 4 μM, with or without ascorbic acid 100 μM

Compound | IC50 (MCF-7) | IC50 (HL-60) | % Early apoptosis (KG-1a cells; [1]) | % Late apoptosis (KG-1a cells; [1]) | % Necrosis (KG-1a cells; [1]) | % Late apoptosis (KG-1a cells; thalidomide 5 mg/L, As2O3 4 μM, IL-2 200 IU/ml, alone or combined, listed as thalidomide) | concentrations inducing degradation of PML/RAR-α (and wild type PML) (PML/RAR-α fusion protein) | % Early apoptosis (KG-1a cells; [2]) | % Late apoptosis (KG-1a cells; [2]) | % Live Cells (KG-1a cells; [2]) | % Necrotic Cells (KG-1a cells; [2]) | % Early apoptosis (KG-1a cells; [3]) | % Late apoptosis (KG-1a cells; [3]) | % Live Cells (KG-1a cells; [3]) | % Necrotic Cells (KG-1a cells; [3]) | cytotoxic effect (in words) (KG-1a cells; [1]) | % Late apoptosis (KG-1a cells; thalidomide 5 mg/L, As2O3 4 μM, IL-2 200 IU/ml, alone or combined, listed as Arsenic trioxide) | concentrations inducing partial differentiation (APL cell line NB4; low concentrations) | concentrations inducing apoptosis (APL cell line NB4; relatively high concentrations)
O=C1CCC(N2C(=O)c3ccccc3C2=O)C(=O)N1 (stereo not drawn) [Thalidomide, α-(N-phthalimido) glutarimide] | 18.4 ± 2.34 µM | 22.1 ± 2.15 µM | 7.92% | 49.385% | 1.155% | 49.39% | – | – | – | – | – | – | – | – | – | – | – | – | –
arsenic trioxide [As2O3] | – | – | 10.095% | 16.965% | 0.59% | – | 0.5-2.0 | 14.50% | 6.88% | 75.94% | 2.68% | 20.87% | 8.31% | 69.56% | 1.26% | modest cytotoxic effect | 16.97% | 0.1-0.5 | 0.5-2.0
